Results published in patent US20190390161A1, “CULTURE MEDIUM COMPRISING OLIGOPEPTIDES” (Evonik Degussa GmbH, priority 2017, published 2019).
Marks after values point to notes of the source that are not given here. Bridge positions count the residues as written; N and C are the ends. Peptide text beside a SMILES is read from it. I, II: the chains in the order shown.

How the values were obtained:
[1] = system: antibody producing Chinese Hamster Ovary (CHO) cells (Subclone DG44); assay: Antibody production (final antibody titer) in TC-42 media; type: cell-based; settings: compared with cells cultured in reference media; 24 days (FIG. 4)
Excerpt: FIG. 4 depicts the final antibody titer with TC-42 media obtained with oligopeptides according to the invention.
(§1) The influence of the L-lysine dipeptides on the growth of antibody producing Chinese Hamster Ovary (CHO) cells (Subclone DG44; Life Technologies Cooperation, Carslbad, USA) in comparison to media containing either the corresponding free amino acids or the corresponding L-alanine dipeptides was investigated. For this purpose, the cells were cultivated in a TC-42 media produced by Xell AG, Bielefeld, Germany in which the amino acids provided within the experiments by dipeptides were lacking. The concentrations of these amino acids were adjusted in such a way that, taking into account a complete hydrolysis of the dipeptides into the amino acids, the concentration of all amino acids were the same in all media tested within this experiment.
Additionally, the effect on antibody production was analysed comparing cells cultured in reference media and cells growing in a media containing the dipeptides bis-alanyl-L-cystine or […] for 24 days (FIG. 4).

[2] = system: antibody producing Chinese Hamster Ovary (CHO) cells (Subclone DG44); assay: Experiment 1: cell growth (VCD) in TC-42 media, cysteine/cystine or leucine replaced by dipeptides; type: cell-based; set-up: Viable cell densities (VCD) / maximum cell densities (max. VCD): unit not given here; settings: for maximum cell densities (max. VCD) / Viable cell densities (VCD): TC-42 media of table 2; for cell growth performance compared with reference medium (FIG. 1): same molar amount of cysteine and cystine in the form of dipeptides
Excerpt: as §1, with “experiment. […] Experiment 1: Comparison of the Cell Growths Obtained with TC-42 media in which L-cysteine/L-cystine is replaced by bis-L-alanyl-L-cystine, bis-L-prolyl-L-cystine or bis-L-lysyl-L-cystine and L-leucine is replaced by […] For this experiment a TC-42 media produced by Xell AG, Bielefeld, Germany in which […]-cystine and L-leucine were deliberately left out of the initial formulation. […] [table]” for “experiment.”

[3] = Solubility found for Lys-Xxx dipeptides; settings: for Solubility Lys-Xxx found: as hydrochloride or as acetate (footnotes 6, 7)
plasmin = plasmin (Homo sapiens, UniProt P00747); settings: Chemical & Pharmaceutical Bulletin 22, 2680 (1974); cited from earlier work
plasmin, sequence (P00747 581-810 limits assumed, species assumed): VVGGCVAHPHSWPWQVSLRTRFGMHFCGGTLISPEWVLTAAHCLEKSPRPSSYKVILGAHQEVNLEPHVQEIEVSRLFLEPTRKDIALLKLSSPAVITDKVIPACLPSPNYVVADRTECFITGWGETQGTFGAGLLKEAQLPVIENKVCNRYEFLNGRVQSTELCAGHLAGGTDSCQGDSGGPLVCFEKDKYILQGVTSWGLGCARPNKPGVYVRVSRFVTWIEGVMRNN
plasmin, sequence (P00747 97-580 partner limits assumed, species assumed): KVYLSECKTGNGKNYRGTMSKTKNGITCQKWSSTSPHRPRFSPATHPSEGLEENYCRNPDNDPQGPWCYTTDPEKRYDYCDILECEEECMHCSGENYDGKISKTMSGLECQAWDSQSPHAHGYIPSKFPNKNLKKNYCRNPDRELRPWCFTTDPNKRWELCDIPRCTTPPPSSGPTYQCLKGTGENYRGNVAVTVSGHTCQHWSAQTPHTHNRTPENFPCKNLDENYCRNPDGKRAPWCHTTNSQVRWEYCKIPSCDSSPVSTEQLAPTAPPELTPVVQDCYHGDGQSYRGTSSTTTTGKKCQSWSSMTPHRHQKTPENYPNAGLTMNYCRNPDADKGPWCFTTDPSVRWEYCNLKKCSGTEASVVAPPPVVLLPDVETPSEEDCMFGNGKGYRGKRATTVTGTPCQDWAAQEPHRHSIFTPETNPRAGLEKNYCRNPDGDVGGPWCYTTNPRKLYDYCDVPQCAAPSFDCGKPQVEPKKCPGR

[4] = cited from earlier work

Compound	maximum cell densities (max. VCD) [2]	Viable cell densities (VCD) ([2]; Time 0.0)	Viable cell densities (VCD) ([2]; Time 0.7)	Viable cell densities (VCD) ([2]; Time 2.0)	Viable cell densities (VCD) ([2]; Time 2.7)	Viable cell densities (VCD) ([2]; Time 3.6)	Viable cell densities (VCD) ([2]; Time 3.7)	Viable cell densities (VCD) ([2]; Time 4.7)	Viable cell densities (VCD) ([2]; Time 5.8)	Viable cell densities (VCD) ([2]; Time 6.7)	Viable cell densities (VCD) ([2]; Time 6.8)	Viable cell densities (VCD) ([2]; Time 7.8)	Viable cell densities (VCD) ([2]; Time 8.7)	Viable cell densities (VCD) ([2]; Time 9.7)	Viable cell densities (VCD) ([2]; Time 10.6)	Viable cell densities (VCD) ([2]; Time 11.6)	Viable cell densities (VCD) ([2]; Time 12.8)	Viable cell densities (VCD) ([2]; Time 13.6)	Viable cell densities (VCD) ([2]; Time 15.0)	Viable cell densities (VCD) ([2]; Time 15.9)	also measured
NCCCC[C@H](N)C(=O)N[C@@H](CSSC[C@H](NC(=O)[C@@H](N)CCCCN)C(=O)O)C(=O)O [Lys2-Cyss, Bis-L-lysyl-L-cystine × 4HCl] (I: H-Lys-Cys-OH / II: H-Lys-Cys-OH; disulfide I:2-II:2)	14.16	0.31	0.39	0.54	0.83	1.02	0.39	0.62	1.18	1.98	0.30	0.43	0.98	1.82	2.88	4.75	6.68	9.20	11.93	13.66	antibody production increased by [1]: ~50%; Viable cell densities (VCD) ([2]; Time 16.7): 13.41; Viable cell densities (VCD) ([2]; Time 17.8): 14.16; Viable cell densities (VCD) ([2]; Time 18.7): 14.15; cell growth performance compared with reference medium (FIG. 1) [2]: performance comparable to bis-alanyl-L-cystine; Solubility Lys-Xxx found [3]: >500 ^6) g/1000 g solution; solubility found ([3]; hydrochloride): > 50 % (w/w)
CC(=O)O.CC(C)C[C@H](NC(=O)[C@@H](N)CCCCN)C(=O)O [Lys-Leu, L-Lysyl-L-leucine acetat] (H-Lys-Leu-OH)	12.43	0.33	0.39	0.59	0.81	0.92	0.34	0.56	0.94	1.40	0.30	0.45	0.79	1.24	1.81	2.38	3.12	3.66	4.52	5.47	cleavage (hydrolysis) by plasmin (plasmin): none of these peptides were cleaved; Viable cell densities (VCD) ([2]; Time 16.7): 6.10; Viable cell densities (VCD) ([2]; Time 17.8): 6.03; Viable cell densities (VCD) ([2]; Time 18.7): 7.23; Viable cell densities (VCD) ([2]; Time 19.9): 10.51; Viable cell densities (VCD) ([2]; Time 20.7): 12.43; Viable cell densities (VCD) ([2]; Time 21.8): 12.15; Viable cell densities (VCD) ([2]; Time 22.8): 11.82; Solubility Lys-Xxx found [3]: >330 ^7) g/1000 g solution
Bis-L-alanyl-L-cystine [Ala2-Cyss, reference compound]	15.06	0.26	0.42	0.47	0.67	0.84	0.36	0.71	1.52	2.34	0.32	0.48	1.06	1.79	3.19	4.89	7.65	10.01	11.62	15.06	Solubility Ala-Xxx ([4]; Degussa product brochure, cystine value WO 2011/133902): 8.7 ^2) g/1000 g solution; solubility ([4]; prior art values, background): 15.3 g/ltr; antibody production increased by [1]: at least 30%; Viable cell densities (VCD) ([2]; Time 16.7): 14.38; Viable cell densities (VCD) ([2]; Time 17.8): 14.05; Viable cell densities (VCD) ([2]; Time 18.7): 14.28; cell growth performance compared with reference medium (FIG. 1) [2]: the cells were able to utilize the peptides for growth
Lys-Lys [reference compound]																					cleavage (hydrolysis) by plasmin (plasmin): none of these peptides were cleaved
